# From publication PMC10796436, “Peptidyl nitroalkene inhibitors of main protease rationalized by computational and crystallographic investigations as antivirals against SARS-CoV-2” (Communications Chemistry, 2024)
# Legend:
# M^pro = M^pro (Severe acute respiratory syndrome coronavirus 2, UniProt P0DTD1); test: Binding to M^pro by ITC; parameters: DP / DH: unit not given here
# [1] = logP determination by HPLC; type: physicochemical; conditions: HPLC retention time
# Experimental: experimental logP was determined. After unsuccessful evaluation by a classical extraction method
# for determination, an HPLC-based estimation of hydrophobicity by retention time was utilized.
# Following a publication60, a set of 9 compounds was chosen for preparing a calibration curve of
# hydrophobicity indices and logPs.
# λ = 254 nm, n = 1). Calibration of hydrophobicity was performed with a mixture of thiourea (Merck
# Fisher Scientific, A12727.AP), Indole (Sigma Aldrich, W259306), Butyrophenone (Merck
# 1 mg/mL each in 50:50 [50 mM NH4OAc buffer pH 7.2/ACN]60 (n = 1). Analysis was performed
# was used for elution with a binary pump using [50 mM NH4OAc buffer pH 7.2/ACN] (1 mL/min):
# For calculation of unknown logP with this method, the following equation is used:
# Signals at 6 and >14 min are due to impurities from
# column that are detected in all measurements and are therefore not taken into account.
# DNMT2 = molecular target: T1, DNMT2 (Homo sapiens, UniProt O14717); test: DNMT2 MST-displacement assay; type: binding; conditions: 100 μM
# T1 sequence (O14717 1-391): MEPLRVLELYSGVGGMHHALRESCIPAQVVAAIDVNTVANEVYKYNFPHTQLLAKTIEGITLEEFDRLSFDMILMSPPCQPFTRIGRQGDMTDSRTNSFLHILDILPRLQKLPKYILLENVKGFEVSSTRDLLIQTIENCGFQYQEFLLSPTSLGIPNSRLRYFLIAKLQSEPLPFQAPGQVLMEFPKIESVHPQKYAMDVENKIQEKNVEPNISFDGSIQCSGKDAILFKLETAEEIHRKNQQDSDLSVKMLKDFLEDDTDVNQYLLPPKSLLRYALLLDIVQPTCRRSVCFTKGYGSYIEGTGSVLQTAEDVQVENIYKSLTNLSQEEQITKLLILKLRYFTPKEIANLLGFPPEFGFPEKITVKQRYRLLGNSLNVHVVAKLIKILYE
# Experimental: DNMT2 MST-Displacement Assay. Assay was conducted according to literature 59. The average of quadruple measurements is depicted for two independent measurements each. The positive control was measured without DNMT2 to detect totally unbound FTAD, additionally Sinefungin (SFG), a literature described DNMT2 inhibitor, was used as a second positive control. SFG and FGA146 concentrations in this assay were 100 µM each.
# Figure 26. Microscale Thermophoresis displacement experiment against DNMT2.
# Other potential off-targets. A search in ChEMBL database for the term “nitroalkene” gave the following papers (excluded 2 synthesis papers using nitroalkenes as reactants) - https://doi.org/10.1021/acsmedchemlett.6b00276: Nitroalkenes against rhodesain and cruzain - https://doi.org/10.1021/jm900326c: Nitroalkene fatty acids against PPARγ - https://doi.org/10.1016/j.ejmech.2012.08.013: Nitroalkene as head group against minor groove binders (anti-infective)
# Results one and three are irrelevant due to different organisms as targets. Restult 2 is unlikely to be important, as fatty acid structure deviates from peptidic structure of inhibitors under investigation […]
# Permeability, PAMPA = type: in vitro ADME; conditions: UV-quantified, 2–7 h
# Experimental: Permeability. General principle after Lit.66 Incubation setup: donor (top) plate (Sigma Aldrich, MAIPNTR10), 5 µL artificial membrane (1 % (w/v) L-α-Phosphatidylcholin, Sigma Aldrich P3556, in n-dodecane, Sigma Aldrich 8205430100), acceptor (bottom) plate (Greiner, 655074).
# Measurement setup – UV spectroscopy: UV-transparent measurement plate (Greiner UV-Star®, 655801), Tecan Spark® well plate reader, 200 µL sample volume, λ = 200–650 nm. Analysis was performed with AUC function in GraphPad Prism using the indicated wavelength range.
# Sigma D5652; pH 7.4 or TRIS 50 mM pH 7.4) aqueous solution with varying final contents of ACN or DMSO as indicated. (“donor solution”). Similarly prepared solutions (buffer + solvent) were used as “acceptor solutions”. 150 µL of donor solution was applied onto the artificial membrane which was applied first to the donor plate. This was sealed (Greiner, 676070, Viewseal sealer). 400 µL of acceptor solution was applied to the acceptor plate. […] After this time, acceptor solution was analyzed with UV spectroscopy. Reference solutions were prepared by simply mixing the indicated volumes of donor and acceptor solutions at the start of the incubation period and analyzed later with the acceptor solutions. […]
# After the incubation period, the reference solution was analyzed by LCMS as described under […]
# No permeation can be observed in any of the UV-quantified experiments. […]
# Huh-7-ACE2 cells = conditions: 24h
SMILES,"Kd (M^pro; ITC, 25 °C) [µM]",DH (M^pro; Molar ratio 0.39455),DH (M^pro; Molar ratio 0.72682),DH (M^pro; Molar ratio 1.06223),DP (M^pro; Time 0.08333 min),DP (M^pro; Time 0.10000 min),DP (M^pro; Time 0.11667 min),logPexp [1],displacement of FTAD from DNMT2 (DNMT2),"permeation (Permeability, PAMPA)",CC50 (Huh-7-ACE2 cells) [µM]
CC(C)C[C@H](NC(=O)OCc1ccccc1)C(=O)N[C@H](/C=C/[N+](=O)[O-])C[C@@H]1CCNC1=O [FGA147],2.86 ± 0.25,-0.9026,-0.8799,-0.8369,-0.00244,-0.00119,-0.00067,,,,
COc1cccc2[nH]c(C(=O)N[C@@H](CC(C)C)C(=O)N[C@H](/C=C/[N+](=O)[O-])C[C@@H]3CCNC3=O)cc12 [FGA146],,,,,,,,2.0,non-binder,No permeation,> 100
